ChEMBL document CHEMBL3352802, “Injury-induced biosynthesis of methyl-branched polyene pigments in a white-rotting basidiomycete” (J Nat Prod, 2014)

Experiments:
HUVEC = assay: Antiproliferative activity against HUVEC cells after 72 hrs; format: functional; conditions: Homo sapiens
K562 = assay: Antiproliferative activity against human K562 cells after 72 hrs; format: functional; conditions: K562, 72 h
[1] = Cytotoxicity against human HeLa cells assessed as cell death; format: cell-based

GI50 (K562) [µM] | Structure (SMILES) | GI50 (HUVEC) [µM] | CC50 [1] [µM]
15.4 | CC(=O)/C(C)=C/C=C/C=C\C=C\C=C\C=C\C=C\C=C/CC(=O)O | 71.6 | 44.1
1.1 | CC(=O)/C(C)=C/C=C/C=C\C=C\C=C\C=C\C=C\C=C/C=C/CC(=O)O | 17.4 | 45.1
3.3 | CC(=O)[C@]1(O)Cc2c(O)c3c(c(O)c2[C@@H](O[C@H]2C[C@H](N)[C@H](O)[C@H](C)O2)C1)C(=O)c1ccccc1C3=O [IDARUBICIN] | – | –
1.9 | CCc1c2c(nc3ccc(OC(=O)N4CCC(N5CCCCC5)CC4)cc13)-c1cc3c(c(=O)n1C2)COC(=O)[C@]3(O)CC [IRINOTECAN] | – | –
5.2 | CC/C(=C(\c1ccccc1)c1ccc(OCCN(C)C)cc1)c1ccccc1 [TAMOXIFEN] | – | –
